Test results from article PMC4425367 (Journal of medicinal chemistry, 2015).
Entries after “also recorded” stand apart in the source; their conditions may differ.

Columns and labels:
rCB1 receptor = rCB1 receptor (Rattus norvegicus, UniProt P20272); assay: cAMP assay, forskolin-stimulated cAMP in HEK293 cells expressing rCB1; assay type: cell-based; settings: cAMP functional test
hCB2 receptor = hCB2 receptor (Homo sapiens, UniProt P34972); assay: cAMP assay, forskolin-stimulated cAMP in HEK293 cells expressing hCB2; assay type: cell-based; settings: for classification hCB2: cAMP functional test
Chain of hCB2 receptor (P34972 whole entry): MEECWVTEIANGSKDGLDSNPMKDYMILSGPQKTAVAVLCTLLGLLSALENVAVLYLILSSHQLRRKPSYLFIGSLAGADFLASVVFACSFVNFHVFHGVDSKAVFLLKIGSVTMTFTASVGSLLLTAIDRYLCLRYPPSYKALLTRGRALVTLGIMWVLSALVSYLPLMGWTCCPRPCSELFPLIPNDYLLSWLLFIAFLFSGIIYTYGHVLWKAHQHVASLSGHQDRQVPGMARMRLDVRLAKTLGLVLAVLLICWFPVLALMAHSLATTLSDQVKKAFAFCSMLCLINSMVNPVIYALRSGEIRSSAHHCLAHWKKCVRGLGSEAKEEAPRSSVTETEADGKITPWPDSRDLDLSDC

CB1 receptor = CB1 receptor (Rattus norvegicus, UniProt P20272); assay type: binding; settings: 10Ki concentration, incubation extended to 60 min, compared with 30 min
Chain of CB1 receptor (P20272 whole entry): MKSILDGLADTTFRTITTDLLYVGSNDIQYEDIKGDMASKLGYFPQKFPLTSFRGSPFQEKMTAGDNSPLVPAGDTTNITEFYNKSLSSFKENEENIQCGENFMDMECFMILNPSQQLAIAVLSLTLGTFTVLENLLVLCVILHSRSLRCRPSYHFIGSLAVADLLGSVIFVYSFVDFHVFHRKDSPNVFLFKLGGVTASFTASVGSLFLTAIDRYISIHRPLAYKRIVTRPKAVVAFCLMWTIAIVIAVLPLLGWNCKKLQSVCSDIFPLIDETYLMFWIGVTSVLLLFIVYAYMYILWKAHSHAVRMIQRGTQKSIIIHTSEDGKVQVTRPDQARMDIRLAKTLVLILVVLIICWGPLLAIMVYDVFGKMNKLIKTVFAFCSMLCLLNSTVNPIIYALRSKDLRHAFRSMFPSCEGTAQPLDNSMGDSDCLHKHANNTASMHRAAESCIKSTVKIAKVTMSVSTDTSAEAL

Chain of rCB1 receptor (P20272 whole entry): as above

SMILES | classification rCB1 (rCB1 receptor) | classification hCB2 (hCB2 receptor) | response of forskolin-stimulated cAMP accumulation, hCB2 (hCB2 receptor; HEK293 cells expressing hCB2, up to a 3 μM concentration) | CB1 covalent binding, 60 min incubation (CB1 receptor)
CC1(C)Oc2cc([C@]34CC5CC(C[C@@](CC#N)(C5)C3)C4)cc(O)c2[C@@H]2C[C@H](O)CC[C@H]21 [Compound 23, 2-{(1R,3r)-3-[(6aR,9R,10aR)-1,9-Dihydroxy-6,6-dimethyl-6a,7,8,9,10,10a-hexahydro-6H-benzo[c]chromen-3-yl]-adamantan-1-yl}acetonitrile] | potent agonists; also recorded: agonist | inverse agonist |  | 
CCCCCCC(C)(C)c1ccc([C@@H]2C[C@H](O)CC[C@H]2CCCO)c(O)c1 [CP-55,940, reference compound] |  | full agonist; also recorded: potent agonist |  | 
CC1(C)Oc2cc([C@]34CC5CC(C[C@@](CN=[N+]=[N-])(C5)C3)C4)cc(O)c2[C@@H]2C[C@H](O)CC[C@H]21 [Compound 17, (6aR,9R,10aR)-3-[(1r,3R)-3-(Azidomethyl)adamantan-1-yl]-6,6-dimethyl-6a,7,8,9,10,10a-hexahydro-6H-benzo[c]-chromene-1,9-diol] | agonist | neutral antagonists | no response | 
CC1(C)Oc2cc([C@]34CC5CC(C[C@@](N=[N+]=[N-])(C5)C3)C4)cc(O)c2[C@@H]2C[C@H](O)CC[C@H]21 [Compound 20, (6aR,9R,10aR)-3-[(1r,3R)-3-Azidoadamantan-1-yl]-6,6-di-methyl-6a,7,8,9,10,10a-hexahydro-6H-benzo[c]chromene-1,9-diol] | potent agonists; also recorded: agonist | neutral antagonists |  | 
CC1(C)Oc2cc([C@]34CC5CC(C[C@@](CN=C=S)(C5)C3)C4)cc(O)c2[C@@H]2C[C@H](O)CC[C@H]21 [Compound 16, (6aR,9R,10aR)-3-[(1r,3R)-3-(Isothiocyanatomethyl)-adamantan-1-yl]-6,6-dimethyl-6a,7,8,9,10,10a-hexahydro-6H-benzo[c]chromene-1,9-diol] | potent agonists; also recorded: agonist | inverse agonist |  | 
CC1(C)Oc2cc([C@]34CC5CC(C[C@@](C#N)(C5)C3)C4)cc(O)c2[C@@H]2C[C@H](O)CC[C@H]21 [Compound 25, (1R,3r)-3-[(6aR,9R,10aR)-1,9-Dihydroxy-6,6-dimethyl-6a,7,8,9,10,10a-hexahydro-6H-benzo[c]chromen-3-yl]-adamantane-1-carbonitrile] | agonist | inverse agonist |  | 
CC1(C)Oc2cc([C@]34CC5CC(C[C@@](N=C=S)(C5)C3)C4)cc(O)c2[C@@H]2C[C@H](O)CC[C@H]21 [Compound 19, (6aR,9R,10aR)-3-[(1r,3R)-3-Isothiocyanatoadamantan-1-yl]-6,6-dimethyl-6a,7,8,9,10,10a-hexahydro-6H-benzo[c]-chromene-1,9-diol] | potent agonists; also recorded: agonist | neutral antagonists |  | no further increase
COC(=O)N[C@]12CC3CC(C1)C[C@](c1cc(O)c4c(c1)OC(C)(C)[C@@H]1CC[C@@H](O)C[C@@H]41)(C3)C2 [Compound 26, Methyl {(1R,3r)-3-[(6aR,9R,10aR)-1,9-Dihydroxy-6,6-dimethyl-6a,7,8,9,10,10a-hexahydro-6H-benzo[c]chromen-3-yl]-adamantan-1-yl}carbamate] | agonist | inverse agonist |  | 
CC1(C)Oc2cc(C34CC5CC(CC(C5)C3)C4)cc(O)c2[C@@H]2C[C@H](O)CC[C@H]21 [Compound 27, reference compound] | agonist |  |  | 
